Experimental data taken from paper PMC7940618, “Specific inhibition of the Survivin–CRM1 interaction by peptide-modified molecular tweezers” (Nature Communications, 2021).
Peptide text beside a SMILES is read from it. * marks the point of attachment. X1 = O=C(Cn1cc(CCOP(=O)(O)Oc2c3c(c(OP(=O)(O)O)c4c2C2CC4c4cc5c(cc42)C2CC5c4ccccc42)C2CC3c3cc4c(cc32)C2CC4c3ccccc32)nn1)*; 5FAM = O=C1OC2(c3ccc(O)cc3Oc3cc(O)ccc32)c2ccc(C(=O)*)cc21

Assays:
Survivin120 wildtype = target: T1, Survivin120 wildtype (Homo sapiens, UniProt O15392); test: Fluorescence anisotropy binding of FAM-labeled tweezers to Survivin120 wildtype
T1 construct: the only published NMR structure originated from a truncated Survivin (aa 1-120) with improved solubility; GST with PreScission site (N); made in house; host or cells: Escherichia coli soluBL21
T1 sequence (O15392 1-120): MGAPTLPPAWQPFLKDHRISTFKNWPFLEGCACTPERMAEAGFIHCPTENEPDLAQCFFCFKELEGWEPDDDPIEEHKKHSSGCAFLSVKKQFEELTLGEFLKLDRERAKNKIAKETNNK
Method: (§1) Fluorescence anisotropy was measured with a Jasco Spectrofluorometer FP-8300 in PBS buffer, pH 7.4, at 25 °C and data were collected with the software Spectra Manager™.
(§2) For binding studies, FAM-labeled molecular tweezers (200 nM) were titrated with Survivin120 wildtype or K90/103T mutant until a final concentration of 180 µM (wildtype) or 350 µM (K90/103T) was reached. Data were normalized to the measured anisotropy A0 in the absence of protein. Using a single-site binding model, the fluorescence anisotropy data were fitted to the equation:3 y=A⋅L+x+KD−L+x+KD^2−4⋅x⋅L/2⋅L where A is the anisotropy at saturation, L is the concentration of the fluorescent ligand, x is the concentration of protein titrated, and KD is the dissociation constant.

Survivin120 K90/103T [1] = target: T2, Survivin120 K90/103T (Homo sapiens, UniProt O15392, K103T/K90T); test: Fluorescence anisotropy binding of FAM-labeled tweezers to Survivin120 K90/103T
T2 construct: the only published NMR structure originated from a truncated Survivin (aa 1-120) with improved solubility; GST with PreScission site (N); made in house; host or cells: Escherichia coli soluBL21
T2 sequence (O15392 1-120 K90T/K103T): as the sequence (O15392 1-120) above, with K90T, K103T counted along it
Method: as §1, §2

Survivin120 = target: T3, Survivin120 (Homo sapiens, UniProt O15392); test: ITC titration of tweezers with Survivin120 wildtype; format: binding
T3 construct: the only published NMR structure originated from a truncated Survivin (aa 1-120) with improved solubility; GST with PreScission site (N); made in house; host or cells: Escherichia coli soluBL21
T3 sequence (O15392 1-120): as the sequence (O15392 1-120) above
Method: The interaction between the tweezers and Survivin was studied by isothermal titration calorimetry (ITC) and NMR spectroscopy. So far, the only published NMR structure originated from a truncated Survivin (aa 1-120) with improved solubility. […] Since the truncated construct still contains all relevant parts of the protein and gives excellent NMR spectra (SI5), we chose it for all our in vitro experiments and denote it as Survivin120 in the following results.
(§3) ITC was performed with a MicroCal iTC200 from Malvern Panalytical in PBS, pH 7.4 at 25 °C with molecular tweezers in the cell and Survivin120 in the titration syringe. The protein was dialyzed overnight at 4 °C against the PBS buffer. Ligands were dissolved in the respective dialysis buffer. Then, 300 µM TW were titrated with 300 µM Survivin120 WT or 321 µM Survivin120 K90/103T. Then, 100 µM TW-ELTL, TW-ELTLGEFL, or TW-LFEEGLLT was titrated with 1.2 mM Survivin120 WT or 2.5 mM Survivin120 K90/103T. For reverse titrations, either 33.3 or 34.4 µM Survivin120 in the cell was titrated with 5 mM TW or TW-ELTL in the syringe, respectively. All titrations were performed in PBS, pH 7.4 at 25 °C. Then, 1.5 μL injections were used with 120 s spacing time between injections. The injection rate was set to 0.5 µL/s and the reference power was 5 µcal/s. ITC thermograms were fitted to a one set of sites model with the software Origin (v7.0552) provided with the instrument. Heat of dilution was subtracted as constant from each data point.
(§4) ITC thermograms were fitted to a one set of sites model with the software Origin provided with the instrument. Heat of dilution was subtracted as constant from each data point. From three independent experiments (n = 3), one representative example was depicted, and thermodynamic data were derived thereof. For pull-down experiments, only the representative quantification of the depicted western blot is shown. […] Fluorescence anisotropy graphs were generated with GraphPad Prism 5.0. Depicted error bars represent the standard deviation of three independent titrations.

Survivin–CRM1 complex = target: T4, Survivin–CRM1 complex (Homo sapiens, UniProt O15392); test: Pull-down with 293T lysate (Survivin142-HA), GST-CRM1 bait, RanQ69L, dGTP; format: binding
T4 construct: expressed in transfected cells; host or cells: 293T cells (Survivin142-HA); E. coli soluBL21 (GST-CRM1, RanQ69L)
T4 sequence (O15392 whole entry, one chain of several): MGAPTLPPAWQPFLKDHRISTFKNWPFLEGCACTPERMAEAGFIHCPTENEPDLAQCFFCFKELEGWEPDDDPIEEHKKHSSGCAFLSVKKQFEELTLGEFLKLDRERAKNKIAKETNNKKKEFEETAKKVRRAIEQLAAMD
Method: We next investigated whether tweezers inhibit the Survivin–CRM1 complex formation in vitro. The effects of the unmodified and peptide-linked tweezers were analyzed via pull-down experiments with 293T lysates containing overexpressed HA-tagged Survivin142, recombinant GST-CRM1 as bait protein, and tweezers (Fig. 6). The parent and ELTL-linked tweezer required 10–50 µM to disrupt the Survivin–CRM1 complex. […] In order to provide experimental evidence for the sequence selectivity of the TW-ELTLGEFL ligand, a scrambled analog was synthesized and clicked to the tweezer, resulting in the hybrid molecule TW-LFEEGLLT (SI1, SI2, and SI10). […] Instead, the slight chemical shift perturbations might be due to the spatial proximity of the peptide moiety to the anchoring residue. All those results strongly indicate that the additional binding energy from the NES interface was lost due to scrambling and thus point toward specific recognition as the reason for increased selectivity and interference with the Survivin–CRM1 interaction. Of note, very high tweezer concentrations (100–200 µM) also weakened GST-CRM1 binding to GSH-Sepharose beads, most likely by low-affinity binding to the GST protein.
All pull-down assays were performed at room temperature in pull-down buffer (PBS, pH 7.4, 1 mM DTT, 0.02 Triton X-100). GST fusion proteins were immobilized on 50 μL GSH-coated Sepharose 4B beads from GE Healthcare. The beads were prior equilibrated and blocked with 500 μL pull-down blocking buffer (PBS, pH 7.4, 1 (w/v) BSA, 1 mM DTT, 0.02 (v/v) Triton X-100) for 1 h to prevent unspecific binding.
For analysis of the effective inhibitory tweezer concentration, 200 μg 293T lysate with overexpressed Survivin142-HA was preincubated without ligand or with different concentrations (10 nM to 200 μM) of unmodified tweezer TW, TW-ELTL, TW-ELTLGEFL, or TW-LFEEGLLT for 1 h and then mixed with 35 μg GST-CRM1, 55 μg RanQ69L, and 2 mM dGTP. GSH-beads were incubated with this protein mixture for 2 h under rotation. […]
Samples of input and beads taken during pull-down experiments were ran on 12.5 SDS gels and transferred onto 0.2 µM PVDF membranes (Amersham Hybond P 0.2) using a PerfectBlue™ tank electro blotter (Peqlab) at 350 mA for 150 min. […] Chemiluminescence was detected and imaged using the Pierce ECL Plus Western Blotting Substrate kit (Thermo Fisher Scientific) and Chemidoc system (Bio-Rad) or film processor Cawomat 2000 IR (CAWO). Western blots were analyzed by densitometric analysis with ImageJ version 1.52p (U.S. National Institutes of Health), measuring the mean gray intensity of protein bands. […]

Survivin120 K90/103T [2] = target: T2, Survivin120 K90/103T; test: ITC titration of tweezers with Survivin120 K90/103T mutant; format: binding
Description: If the tweezer-based inhibitors indeed bind to lysines/arginines flanking the NES (K90, K91, K103, R106), their mutation to, e.g., threonine, should abolish the observed effects. For this reason, we generated double and triple Survivin120 mutants lacking these putative tweezer anchor points. Unfortunately, most double mutants and especially the triple mutants were unfolded as evidenced by 1D ^1H NMR (SI6); finally, the correctly folded double threonine mutant Survivin120 K90/103T was chosen for further investigation. […] Next, binding of FAM-labeled tweezers (SI3) to either Survivin120 wildtype or the K90/103T mutant was studied by fluorescence anisotropy (Fig. 7d–f). […] We conclude that lysines 90 and 103 are indeed essential for efficient tweezer binding.
as §3, §4

TW-ELTL-FAM (human) = test: fluorescence polarisation; fluorescence anisotropy; 200 nM FAM-labeled tweezer titrated with Survivin120 (to 180 µM) or K90/103T (to 350 µM); PBS pH 7.4, 25 °C; single-site model
TW-ELTLGEFL-FAM (human) = test: as above
[3] = target: TW-ELTLGEFL (asymmetrical molecular tweezer linked to the elongated peptide ELTLGEFL) (human); test: ITC; tweezer conjugate (100 µM) in the cell, Survivin120 (1.2 mM WT or 2.5 mM K90/103T) in the syringe; PBS pH 7.4, 25 °C; one set of sites model
[4] = target: TW-ELTL (asymmetrical molecular tweezer linked to the short peptide ELTL) (human); test: as above
Survivin142-HA (human) = Survivin142-HA (human) (UniProt O15392); test: pull-down; competition in the pull-down of a5: 293T lysate with Survivin142-HA preincubated 1 h with 10 nM to 200 µM tweezer conjugate before GST-CRM1, RanQ69L and dGTP
Chain of Survivin142-HA (human) (O15392 whole entry): as the sequence (O15392 whole entry, one chain of several) above

[5] = target: Atto488-labeled Survivin120 (human) (UniProt O15392); test: fluorescence polarisation; fluorescence anisotropy competition; Atto488-Survivin120 preincubated with CRM1_1-1062VLV430AAA at 1:5, titrated with tweezers to approx. 180 µM; PBS pH 7.4, 25 °C; n = 1
Chain of Atto488-labeled Survivin120 (human) (O15392 1-120): as the sequence (O15392 1-120) above

## CC(C)C[C@H](NC(=O)[C@H](CCC(=O)O)NC(=O)Cn1cc(CCOP(=O)(O)Oc2c3c(c(OP(=O)(O)O)c4c2[C@H]2C[C@@H]4c4cc5c(cc42)[C@H]2C[C@@H]5c4ccccc42)[C@H]2C[C@@H]3c3cc4c(cc32)[C@H]2C[C@@H]4c3ccccc32)nn1)C(=O)N[C@H](C(=O)N[C@@H](CC(C)C)C(=O)N[C@@H](CCCCNC(=O)c1ccc2c(c1)C(=O)OC21c2ccc(O)cc2Oc2cc(O)ccc21)C(=O)NCC(=O)O)[C@@H](C)O [TW-ELTL-FAM]
Survivin120 wildtype
  Kd: 26 ± 2 µM
Survivin120 K90/103T [1]
  Kd: 240 ± 20 µM

## CC(C)C[C@H](NC(=O)[C@H](Cc1ccccc1)NC(=O)[C@H](CCC(=O)O)NC(=O)CNC(=O)[C@H](CC(C)C)NC(=O)[C@@H](NC(=O)[C@H](CC(C)C)NC(=O)[C@H](CCC(=O)O)NC(=O)Cn1cc(CCOP(=O)(O)Oc2c3c(c(OP(=O)(O)O)c4c2C2CC4c4cc5c(cc42)C2CC5c4ccccc42)C2CC3c3cc4c(cc32)C2CC4c3ccccc32)nn1)[C@@H](C)O)C(=O)N[C@@H](CCCCNC(=O)c1ccc2c(c1)C(=O)OC21c2ccc(O)cc2Oc2cc(O)ccc21)C(=O)NCC(=O)O [TW-ELTLGEFL-FAM] (X1-ELTLGEFLK(5FAM)G-OH)
Survivin120 wildtype
  Kd: 5 ± 0.5 µM
Survivin120 K90/103T [1]
  Kd: 92 ± 5 µM

## CC(C)C[C@H](NC(=O)Cn1cc(CCOP(=O)(O)Oc2c3c(c(OP(=O)(O)O)c4c2C2CC4c4cc5c(cc42)C2CC5c4ccccc42)C2CC3c3cc4c(cc32)C2CC4c3ccccc32)nn1)C(=O)N[C@@H](Cc1ccccc1)C(=O)N[C@@H](CCC(=O)O)C(=O)N[C@@H](CCC(=O)O)C(=O)NCC(=O)N[C@@H](CC(C)C)C(=O)N[C@@H](CC(C)C)C(=O)N[C@H](C(=O)O)[C@@H](C)O [TW-LFEEGLLT] (HELM PEPTIDE1{[O=C(Cn1cc(CCOP(=O)(O)Oc2c3c(c(OP(=O)(O)O)c4c2C2CC4c4cc5c(cc42)C2CC5c4ccccc42)C2CC3c3cc4c(cc32)C2CC4c3ccccc32)nn1)[*:2]].L.F.E.E.G.L.L.T}$$$$V2.0)
Survivin120; ITC KD ratio
  lower affinity toward wildtype protein compared with TW-ELTLGEFL: ~ three
Survivin120; ITC, Survivin120 WT
  -TΔS: -4.7 kcal
  ΔG: -5.7 kcal
  ΔH: -1.0 kcal
Survivin120; ITC, Survivin120 WT, PBS pH 7.4, 25 °C, one set of sites model, mean ± SEM of fit
  Kd: 68 ± 22 µM
Survivin–CRM1 complex; pull-down analyses
  effectiveness compared with TW-ELTLGEFL: about one order of magnitude less effective
Survivin–CRM1 complex; pull-down, concentrations between 1 and 50 µM (SI18)
  concentration inhibiting the Survivin/CRM1 interaction efficiently: > 50 µM
Survivin120 K90/103T [2]
  Kd: 55 ± 24 µM
Survivin120 K90/103T [2]; ITC, Survivin120 K90/103T
  ΔH: -1.4 kcal

## Survivin120 K90/103T (from UniProt O15392 1-120) (domain or fragment)
TW-ELTL-FAM (human)
  Kd: 240 µM
TW-ELTLGEFL-FAM (human)
  Kd: 92 µM
[3]
  Kd: 36 µM
  stoichiometry N (ligand/protein): 1
[4]
  Kd: 50 µM
  stoichiometry N (ligand/protein): 1

## TW-ELTL (asymmetrical molecular tweezer linked to the short peptide ELTL)
Survivin142-HA (human)
  concentration required to disrupt the Survivin–CRM1 complex: 10 to 50 µM
[5]
  IC50: 39 µM

## TW-ELTLGEFL (asymmetrical molecular tweezer linked to the elongated peptide ELTLGEFL)
Survivin142-HA (human)
  concentration effective in disrupting the Survivin–CRM1 complex: 1 to 10 µM
[5]
  IC50: 12 µM
